Laboratory results taken from PubChem BioAssay AID256 (DTP/NCI, 2004).
Several values for one entry are separate records, joined by “and”; a condition that tells them apart may be missing. Identical values can stand only once. Inconclusive results and toxic doses are left out.

Test system: CD2F1 mice, L1210 leukemia ip, survival T/C
Experiment: NCI In Vivo Anticancer Drug Screen. Data for tumor model L1210 Leukemia (intraperitoneal) in CD2F1 (CDF1) mice
Conditions: endpoint: mean survival time, higher = longer survival
In short: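 In this screen, transplantable tumors were grown in mice given either the compound or its vehicle. Results were expressed as the treated measurement relative to the control measurement.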

[1] = dose: 12.5 mg/kg/injection, schedule: Q01DX009 (ip), vehicle: saline
[2] = dose: 25.0 mg/kg/injection, schedule: Q04DX002 (ip), vehicle: saline with Tween-80
[3] = dose: 50.0 mg/kg/injection, schedule: Q04DX002 (ip), vehicle: saline with Tween-80
[4] = dose: 100.0 mg/kg/injection, schedule: Q04DX002 (ip), vehicle: saline with Tween-80
[5] = dose: 100.0 mg/kg/injection, schedule: Q04DX003 (ip), vehicle: saline with Tween-80
[6] = dose: 200.0 mg/kg/injection, schedule: Q04DX003 (ip), vehicle: saline with Tween-80
[7] = dose: 400.0 mg/kg/injection, schedule: Q04DX003 (ip), vehicle: saline with Tween-80
[8] = dose: 100.0 mg/kg/injection, schedule: Q01DX001 (ip), vehicle: saline with Tween-80
[9] = dose: 200.0 mg/kg/injection, schedule: Q01DX001 (ip), vehicle: saline with Tween-80
[10] = dose: 100.0 mg/kg/injection, schedule: Q01DX009 (ip), vehicle: saline with Tween-80
[11] = dose: 200.0 mg/kg/injection, schedule: Q01DX009 (ip), vehicle: saline with Tween-80
[12] = dose: 400.0 mg/kg/injection, schedule: Q01DX009 (ip), vehicle: saline with Tween-80
[13] = dose: 25.0 mg/kg/injection, schedule: Q04DX003 (ip), vehicle: saline with Tween-80

Q: CC(=O)OCC1OC(N2CN=C(N)NC2=O)C(OC(C)=O)C1OC(C)=O (stereo unspecified) was tested. Which T/C (dose: 3.12 mg/kg/injection, schedule: Q01DX009 (ip), vehicle: saline) did it give?
A: 109 % of control

Q: And the T/C (dose: 6.25 mg/kg/injection, schedule: Q01DX009 (ip), vehicle: saline)?
A: 108 % of control

Q: And the T/C [1]?
A: 115 % of control and 110 % of control

Q: What about the T/C (dose: 50.0 mg/kg/injection, schedule: Q01DX009 (ip), vehicle: saline) of the same compound?
A: 178 % of control and 183 % of control

Q: What about the T/C (dose: 100.0 mg/kg/injection, schedule: Q01DX009 (ip), vehicle: saline) of the same compound?
A: 203 % of control and 208 % of control

Q: CN=C1C=C/C(=N/N=c2/ccn(O)cc2C)C=C1C was tested. Which T/C [2] did it give?
A: 106 % of control

Q: And the T/C [3]?
A: 95 % of control

Q: And the T/C [4]?
A: 111 % of control

Q: CC(=O)Nc1ccc(S(=O)(=O)OCCCl)cc1 was tested. Which T/C [5] did it give?
A: 96 % of control

Q: What about the T/C [6] of the same compound?
A: 110 % of control

Q: And the T/C [7]?
A: 102 % of control

Q: What does the source list for Cc1ccc(N2C(=O)CSC2=S)c(Br)c1?
A: T/C [8]: 101 % of control; T/C [9]: 101 % of control; T/C (dose: 400.0 mg/kg/injection, schedule: Q01DX001 (ip), vehicle: saline with Tween-80): 106 % of control

Q: For Cc1c(C)c([N+](=O)[O-])c(Br)c(C)c1[N+](=O)[O-], which T/C [10] is on record?
A: 103 % of control

Q: And the T/C [5]?
A: 95 % of control

Q: And the T/C [11]?
A: 97 % of control

Q: And the T/C [6]?
A: 88 % of control

Q: What about the T/C [12] of the same compound?
A: 101 % of control

Q: What about the T/C [7] of the same compound?
A: 87 % of control

Q: Which results are given for CC1(Br)CS(=O)(=O)CC1(C)Br (stereo unspecified)?
A: T/C (dose: 75.0 mg/kg/injection, schedule: Q01DX001 (ip), vehicle: saline with Tween-80): 104 % of control; T/C (dose: 150.0 mg/kg/injection, schedule: Q01DX001 (ip), vehicle: saline with Tween-80): 98 % of control; T/C (dose: 300.0 mg/kg/injection, schedule: Q01DX001 (ip), vehicle: saline with Tween-80): 101 % of control

Q: O=S(=O)(/C=C\S(=O)(=O)c1ccccc1)c1ccccc1 was tested. Which T/C (dose: 12.5 mg/kg/injection, schedule: Q01DX009 (ip), vehicle: Klucel (hydroxypropylcellulose) (HPC)) did it give?
A: 98 % of control

Q: What about the T/C (dose: 25.0 mg/kg/injection, schedule: Q01DX009 (ip), vehicle: Klucel (hydroxypropylcellulose) (HPC)) of the same compound?
A: 95 % of control

Q: With C=CC[As](=O)(O)c1ccccc1Cl as the compound, how does the T/C (dose: 6.25 mg/kg/injection, schedule: Q04DX003 (ip), vehicle: saline with Tween-80) read?
A: 98 % of control

Q: And the T/C (dose: 12.5 mg/kg/injection, schedule: Q04DX003 (ip), vehicle: saline with Tween-80)?
A: 105 % of control

Q: And the T/C [13]?
A: 104 % of control

Q: What does the source list for CCc1ccc(O)cc1O?
A: T/C (dose: 25.0 mg/kg/injection, schedule: Q04DX003 (ip), vehicle: saline): 97 % of control; T/C (dose: 50.0 mg/kg/injection, schedule: Q04DX003 (ip), vehicle: saline): 102 % of control; T/C (dose: 100.0 mg/kg/injection, schedule: Q04DX003 (ip), vehicle: saline): 94 % of control and 96 % of control

Q: Which T/C [13] does the source give for O=C1C(Cl)=C(NCc2ccc(Cl)cc2)C(=O)c2ccccc21 here?
A: 102 % of control

Q: What about the T/C (dose: 50.0 mg/kg/injection, schedule: Q04DX003 (ip), vehicle: saline with Tween-80) of the same compound?
A: 91 % of control

Q: What about the T/C [5] of the same compound?
A: 91 % of control

Q: What does the source list for CC(C)/C(=N\[N+](C)(C)C)c1ccccc1?
A: T/C (dose: 18.8 mg/kg/injection, schedule: Q01DX009 (ip), vehicle: saline): 97 % of control; T/C (dose: 37.5 mg/kg/injection, schedule: Q01DX009 (ip), vehicle: saline): 96 % of control; T/C (dose: 75.0 mg/kg/injection, schedule: Q01DX009 (ip), vehicle: saline): 91 % of control

Q: NNC1CC2CCC1C2 (stereo unspecified) was tested. Which T/C [1] did it give?
A: 95 % of control

Q: And the T/C (dose: 25.0 mg/kg/injection, schedule: Q01DX009 (ip), vehicle: saline)?
A: 93 % of control

Q: Which T/C [10] does the source give for CC1=NN(c2ccccc2)C(=O)C1CC1C(=O)N(c2ccccc2)N=C1C (stereo unspecified) here?
A: 101 % of control

Q: And the T/C [5]?
A: 96 % of control

Q: What about the T/C [11] of the same compound?
A: 107 % of control

Q: And the T/C [6]?
A: 92 % of control

Q: And the T/C [12]?
A: 101 % of control

Q: And the T/C [7]?
A: 88 % of control

Q: What does the source list for COc1ccc(OC)c2[nH]c(=O)c(CCC(=O)O)nc12?
A: T/C [8]: 98 % of control; T/C [9]: 92 % of control

Q: What does the source list for CCOC(=O)Nc1cccc(Cl)c1Cl?
A: T/C [10]: 97 % of control; T/C [11]: 102 % of control; T/C [12]: 105 % of control

Q: Which T/C (dose: 12.5 mg/kg/injection, schedule: Q01DX009 (ip), vehicle: water) does the source give for O=C(NCCI)NC1C(O)OC(CO)C(O)C1O (stereo unspecified) here?
A: 93 % of control

Q: And the T/C (dose: 25.0 mg/kg/injection, schedule: Q01DX009 (ip), vehicle: water)?
A: 92 % of control

Q: What about the T/C (dose: 50.0 mg/kg/injection, schedule: Q01DX009 (ip), vehicle: water) of the same compound?
A: 93 % of control

Q: And the T/C (dose: 100.0 mg/kg/injection, schedule: Q01DX009 (ip), vehicle: water)?
A: 95 % of control

Q: What about the T/C (dose: 200.0 mg/kg/injection, schedule: Q01DX009 (ip), vehicle: water) of the same compound?
A: 89 % of control

Q: With O=C(COc1ccccc1-c1ccccc1)Nc1ccccc1-c1ccccc1 as the compound, how does the T/C [2] read?
A: 98 % of control

Q: And the T/C [3]?
A: 98 % of control

Q: What about the T/C [4] of the same compound?
A: 94 % of control

Q: With OC(c1ccccc1)(c1ccccc1)c1ccccc1 (tested in a mixture with another compound) as the compound, how does the T/C [5] read?
A: 98 % of control

Q: And the T/C [6]?
A: 91 % of control

Q: And the T/C [7]?
A: 97 % of control
